# Results published in US20090246250A1, “COATING COMPOSITIONS HAVING IMPROVED PERFORMANCE” (priority 2008, published 2009).
# Square brackets hold non-standard residues; d marks the D form. Ends that are not written are not given here. AEEA = NCCOCCOCC(=O)O
# Assays:
# [1] = Vancomycin loading onto coated titanium bead (HCl elution, HPLC); format: binding; settings: peptide/polymer + vancomycin mixture 30 mins 20° C., PBS washes, 100 mM HCl eluate by HPLC
# Experimental: The experimental procedure used for the embodiments described above was as follows. […] All three components were mixed and then applied to the metal bead. […] All three components were mixed and then applied to the metal bead. […] The mixtures were applied to the metal beads and incubated for 30 mins at 20° C. with 700 rpm shaking. The beads were washed three times with 350 ul PBS. Beads were analyzed as follows: 200 ul of 100 mM HCl was added to each bead and incubated for 30 mins at 20° C. with 1,000 rpm shaking. The eluate from each bead was analyzed by HPLC using Phenomenex Luna 3 um column, 50×4.60 mm. Output was compared to a standard curve for vancomycin to determine the amount of vancomycin retained onto the metal bead.
# [2] = system: Staphylococcus aureus strain MZ100; experiment: Tibia pin assay: coated titanium pins with vancomycin, bacterial cfu count; format: cell-based; set-up: key: —: “-” means no cfus; “many” means too many cfus to count, as they converge into one spot; settings: 3 hours 37° C.
# Description: In this assay, titanium pins were used as a model for tibia pins. Briefly, sterile pins were first coated with biofunctional composition (“SEQ ID NO:124-linker-SEQ ID NO:122”) comprising a substrate-binding peptide having binding specificity for vancomycin (“SEQ ID NO:124”) linked to a substrate-binding peptide having binding specificity for metal (“SEQ ID NO:122”), or a composition of the invention formed from compound comprising the biofunctional composition covalently coupled to fatty acid. The respective coatings also include vancomycin bound thereto. The coated pins were then placed in a silicone tube containing liquid bacterial growth medium and inoculated with bacteria. After incubation, the pins were removed, and then the liquid growth medium was serially diluted. The serial dilutions were inoculated onto bacterial culture plates, the plates were incubated, and counted on the plates were bacterial colonies.
# In this assay, test samples (biofunctional composition (Table 6, “BC”) or compositions 133, 134, 135, 136 139) each were used to coat a pin by incubating the test sample (in a range of from about 0.8 mM to about 1 mM) with 2.5 μl of a 10 mM vancomycin solution and PBS to a final volume of 250 μl in a microtube (3 pins per tube) for 60 minutes at room temperature with occasional agitation. In a piece of silicone tubing (1.5 mm inner diameter, 50 mm long), added is tryptic soy broth+0.2% glucose, the coated pin, and 10^3 colony forming units (cfu) of Staphylococcus aureus strain MZ100 in either a 20 μl inoculum, 40 μl inoculum, or 60 μl inoculum. The tubing is clamped closed, and the tubing is incubated for 37° C. for 3 hours. After 3 hours, serial dilutions (1:10, 1:100, 1:1000) were made of the culture media from each tubing, and 10 μl of the undiluted culture medium and of each dilution were spotted onto the bacterial culture plate. The bacterial culture plate was incubated overnight at 37° C., and then the cfus were counted. The results, a composite of different assay runs, are shown in Table 6 (“-” means no cfus; “many” means too many cfus to count, as they converge into one spot; “NT” means not tested).
Substance,Vancomycin Load [1],cfu 1:10 ([2]; inoculum volume 20 μl),cfu 1:100 ([2]; inoculum volume 20 μl),cfu 1:1000 ([2]; inoculum volume 20 μl),cfu undiluted ([2]; inoculum volume 20 μl),cfu 1:10 ([2]; inoculum volume 40 μl) [cfu],cfu 1:100 ([2]; inoculum volume 40 μl) [cfu],cfu 1:1000 ([2]; inoculum volume 40 μl),cfu undiluted ([2]; inoculum volume 40 μl),cfu 1:10 ([2]; inoculum volume 60 μl) [cfu],cfu 1:100 ([2]; inoculum volume 60 μl) [cfu],cfu 1:1000 ([2]; inoculum volume 60 μl),cfu undiluted ([2]; inoculum volume 60 μl)
MA-AHx-SSCLIDIYGVCHN FDAY-miniPeg-miniPeg-YFRAFRKFVKPFKRAFKGSSK(Biotin) [SEQ ID NO:165],"1,700 pmol/cm2",,,,,,,,,,,,
"SSSCLIDMYGVCHNFDGAYDSSRG [Compound 134, AUD-AUD-AUD-AUD-SEQ ID NO:124-linker-SEQ ID NO:122]",,—,—,—,—,6,1,—,many,17,5,—,many
SSSCLIDMYGVCHNFDGAYDSSRG-miniPeg-miniPeg-SSHRTNHKKNNPKKKNKTRGSSGK (SSSCLIDMYGVCHNFDGAYDSSRG[AEEA][AEEA]SSHRTNHKKNNPKKKNKTRGSSGK; not fully specified (bridges); printed as SSSCLIDMYGVCHNFDGAYDSSRG-miniPeg-miniPeg-SSHRTNHKKNNPKKKNKTRGSSGK; cysteine pairing not given here) [SEQ ID NO:163],54 pmol/cm2,,,,,,,,,,,,
